Measured values taken from patent publication US7745437B2, “Compounds and compositions as protein kinase inhibitors” (IRM LLC, priority 2004, dated 2010).

How the values were obtained:
Test in all cases: Upstate KinaseProfiler radio-enzymatic filter binding assay
Format in all cases: biochemical
SAPK2α = molecular target: T1, SAPK2α (Homo sapiens, UniProt Q16539); conditions: at a concentration of 10 μM; read-out: percentage inhibition of SAPK2α
T1 construct: purchased Upstate
Method: (§1) Compounds of the invention are assessed for their ability to inhibit individual members of the kinase panel. The compounds are tested in duplicates at a final concentration of 10 μM following this generic protocol. Note that the kinase buffer composition and the substrates vary for the different kinases included in the “Upstate KinaseProfiler™” panel. Kinase buffer (2.5 μL, 10×—containing MnCl2 when required), active kinase (0.001-0.01 Units; 2.5 μL), specific or Poly(Glu4-Tyr) peptide (5-500 μM or 0.01 mg/ml) in kinase buffer and kinase buffer (50 μM; 5 μL) are mixed in an eppendorf on ice, A Mg/ATP mix (10 μL; 67.5 (or 33.75) mM MgCl2, 450 (or 225) μM ATP and 1 μCi/μl [γ-^32P]-ATP (3000 Ci/mmol)) is added and the reaction is incubated at about 30° C. for about 10 minutes. The reaction mixture is spotted (20 μL) onto a 2 cm×2 cm P81 (phosphocellulose, for positively charged peptide substrates) or Whatman No. 1 (for Poly (Glu4-Tyr) peptide substrate) paper square. The assay squares are washed 4 times, for 5 minutes each, with 0.75% phosphoric acid and washed once with acetone for 5 minutes. The assay squares are transferred to a scintillation vial, 5 ml scintillation cocktail are added and ^32P incorporation (cpm) to the peptide substrate is quantified with a Beckman scintillation counter. Percentage inhibition is calculated for each reaction.

c-RAF = molecular target: T2, c-RAF (Homo sapiens, UniProt P04049); conditions: at a concentration of 10 μM; read-out: percentage inhibition of c-RAF
T2 construct: purchased Upstate
Method: as §1

wild-type Abl = molecular target: T3, wild-type Abl (Homo sapiens, UniProt P00519); conditions: at a concentration of 10 μM; read-out: percentage inhibition of wild-type Abl
T3 construct: purchased Upstate
Method: as §1

SAPK2β = molecular target: T4, SAPK2β (Homo sapiens, UniProt Q15759); conditions: at a concentration of 10 μM; read-out: percentage inhibition of SAPK2β
T4 construct: purchased Upstate
Method: as §1

Tie2 = molecular target: T5, Tie2 (Homo sapiens, UniProt Q02763); conditions: at a concentration of 10 μM; read-out: percentage inhibition of Tie2
T5 construct: purchased Upstate
Method: as §1

TrkB = molecular target: T6, TrkB (Homo sapiens, UniProt Q16620); conditions: at a concentration of 10 μM; read-out: percentage inhibition of TrkB
T6 construct: purchased Upstate
Method: as §1

JNK2α2 = molecular target: T7, JNK2α2 (Homo sapiens, UniProt P45984); conditions: at a concentration of 10 μM; read-out: percentage inhibition of JNK2α2
T7 construct: purchased Upstate
Method: as §1

MKK6 = molecular target: T8, MKK6 (Homo sapiens, UniProt P52564); conditions: at a concentration of 10 μM; read-out: percentage inhibition of MKK6
T8 construct: purchased Upstate
T8 sequence (P52564 1-334): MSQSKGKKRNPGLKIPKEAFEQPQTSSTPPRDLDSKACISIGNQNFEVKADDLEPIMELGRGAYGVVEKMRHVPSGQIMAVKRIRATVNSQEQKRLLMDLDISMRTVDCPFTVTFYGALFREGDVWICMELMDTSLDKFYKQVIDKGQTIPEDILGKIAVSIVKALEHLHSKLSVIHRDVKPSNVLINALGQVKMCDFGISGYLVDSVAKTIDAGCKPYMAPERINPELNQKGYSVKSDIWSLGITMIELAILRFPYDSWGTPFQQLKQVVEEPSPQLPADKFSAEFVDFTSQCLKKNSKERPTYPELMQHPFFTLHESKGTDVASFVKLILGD
Method: as §1

PDGFRα = molecular target: T9, PDGFRα (Homo sapiens, UniProt P16234); conditions: at a concentration of 10 μM; read-out: percentage inhibition of PDGFRα
T9 construct: purchased Upstate
Method: as §1

c-SRC = molecular target: T10, c-SRC (Homo sapiens, UniProt P12931); conditions: at a concentration of 10 μM; read-out: percentage inhibition of c-SRC
T10 construct: purchased Upstate
Method: as §1

lck = molecular target: T11, lck (Homo sapiens, UniProt P06239); conditions: at a concentration of 10 μM; read-out: percentage inhibition of lck
T11 construct: purchased Upstate
Method: as §1

T10 sequence (P12931 whole entry): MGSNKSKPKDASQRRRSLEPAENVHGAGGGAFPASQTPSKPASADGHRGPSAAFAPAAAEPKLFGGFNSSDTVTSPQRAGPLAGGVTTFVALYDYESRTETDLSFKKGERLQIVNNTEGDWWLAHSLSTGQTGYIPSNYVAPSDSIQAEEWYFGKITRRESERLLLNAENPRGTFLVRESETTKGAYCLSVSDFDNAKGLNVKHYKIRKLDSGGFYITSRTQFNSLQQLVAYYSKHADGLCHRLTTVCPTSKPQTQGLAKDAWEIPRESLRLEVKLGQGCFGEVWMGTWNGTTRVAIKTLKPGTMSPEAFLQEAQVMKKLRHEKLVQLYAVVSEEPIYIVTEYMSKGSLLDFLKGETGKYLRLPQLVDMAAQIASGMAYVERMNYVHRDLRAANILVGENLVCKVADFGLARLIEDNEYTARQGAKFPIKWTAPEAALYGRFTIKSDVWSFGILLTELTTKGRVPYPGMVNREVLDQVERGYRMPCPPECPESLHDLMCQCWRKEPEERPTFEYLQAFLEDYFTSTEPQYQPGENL
T4 sequence (Q15759 whole entry): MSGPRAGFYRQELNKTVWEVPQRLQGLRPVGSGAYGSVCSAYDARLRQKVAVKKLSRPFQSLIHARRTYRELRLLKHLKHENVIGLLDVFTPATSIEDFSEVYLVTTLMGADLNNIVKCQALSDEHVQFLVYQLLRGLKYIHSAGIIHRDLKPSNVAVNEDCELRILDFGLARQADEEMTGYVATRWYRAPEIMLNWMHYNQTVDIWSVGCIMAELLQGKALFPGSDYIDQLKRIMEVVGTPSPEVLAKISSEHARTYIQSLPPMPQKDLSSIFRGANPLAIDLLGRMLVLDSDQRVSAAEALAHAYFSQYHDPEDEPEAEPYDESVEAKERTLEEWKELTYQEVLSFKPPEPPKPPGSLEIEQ
T3 sequence (P00519 whole entry, species assumed): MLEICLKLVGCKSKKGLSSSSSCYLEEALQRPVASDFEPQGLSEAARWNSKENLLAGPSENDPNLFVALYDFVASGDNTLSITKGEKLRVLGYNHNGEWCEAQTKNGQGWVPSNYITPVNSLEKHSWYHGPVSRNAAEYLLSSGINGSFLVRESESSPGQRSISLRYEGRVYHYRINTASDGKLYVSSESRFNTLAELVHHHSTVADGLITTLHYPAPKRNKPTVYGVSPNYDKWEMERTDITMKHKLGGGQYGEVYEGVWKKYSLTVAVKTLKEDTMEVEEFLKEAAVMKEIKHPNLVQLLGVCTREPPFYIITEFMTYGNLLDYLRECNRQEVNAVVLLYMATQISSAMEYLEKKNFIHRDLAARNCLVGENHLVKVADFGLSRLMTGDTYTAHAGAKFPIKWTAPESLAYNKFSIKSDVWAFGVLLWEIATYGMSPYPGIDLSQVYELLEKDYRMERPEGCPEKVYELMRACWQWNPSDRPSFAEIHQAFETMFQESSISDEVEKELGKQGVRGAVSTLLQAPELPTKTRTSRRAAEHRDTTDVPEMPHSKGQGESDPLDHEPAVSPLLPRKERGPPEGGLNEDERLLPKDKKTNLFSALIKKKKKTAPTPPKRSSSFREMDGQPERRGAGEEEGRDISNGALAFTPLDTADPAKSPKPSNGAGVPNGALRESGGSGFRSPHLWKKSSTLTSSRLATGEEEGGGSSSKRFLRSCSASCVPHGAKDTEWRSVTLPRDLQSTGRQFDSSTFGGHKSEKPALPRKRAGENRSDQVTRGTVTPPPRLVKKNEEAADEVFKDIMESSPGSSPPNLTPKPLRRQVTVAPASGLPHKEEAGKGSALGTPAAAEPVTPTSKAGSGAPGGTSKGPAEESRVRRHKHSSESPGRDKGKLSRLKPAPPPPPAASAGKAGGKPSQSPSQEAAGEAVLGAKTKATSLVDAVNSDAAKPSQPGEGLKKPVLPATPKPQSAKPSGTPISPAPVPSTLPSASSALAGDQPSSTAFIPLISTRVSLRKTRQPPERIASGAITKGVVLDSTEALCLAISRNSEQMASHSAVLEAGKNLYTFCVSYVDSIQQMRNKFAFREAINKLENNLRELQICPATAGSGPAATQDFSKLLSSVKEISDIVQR
T6 sequence (Q16620 32-822): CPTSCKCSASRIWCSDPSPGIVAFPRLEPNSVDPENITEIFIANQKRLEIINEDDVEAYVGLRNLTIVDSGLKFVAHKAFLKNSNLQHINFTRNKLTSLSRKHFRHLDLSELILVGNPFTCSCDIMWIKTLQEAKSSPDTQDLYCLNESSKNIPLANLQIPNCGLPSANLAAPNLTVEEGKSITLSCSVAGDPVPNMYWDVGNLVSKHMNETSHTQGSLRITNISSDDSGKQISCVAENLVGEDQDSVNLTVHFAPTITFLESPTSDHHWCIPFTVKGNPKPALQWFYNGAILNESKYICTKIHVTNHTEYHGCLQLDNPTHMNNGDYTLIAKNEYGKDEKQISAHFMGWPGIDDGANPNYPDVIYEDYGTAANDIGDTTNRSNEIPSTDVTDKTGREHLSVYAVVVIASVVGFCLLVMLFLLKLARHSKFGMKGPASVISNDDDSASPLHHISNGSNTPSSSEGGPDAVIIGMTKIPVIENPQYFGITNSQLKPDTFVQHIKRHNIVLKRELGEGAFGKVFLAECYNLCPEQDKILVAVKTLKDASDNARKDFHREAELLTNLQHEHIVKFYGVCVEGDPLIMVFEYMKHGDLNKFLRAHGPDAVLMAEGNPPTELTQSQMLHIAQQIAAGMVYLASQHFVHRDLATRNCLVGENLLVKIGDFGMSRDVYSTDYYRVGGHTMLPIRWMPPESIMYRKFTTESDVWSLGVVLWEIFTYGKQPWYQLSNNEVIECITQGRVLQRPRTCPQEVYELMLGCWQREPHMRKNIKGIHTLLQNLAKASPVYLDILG
T5 sequence (Q02763 23-1124): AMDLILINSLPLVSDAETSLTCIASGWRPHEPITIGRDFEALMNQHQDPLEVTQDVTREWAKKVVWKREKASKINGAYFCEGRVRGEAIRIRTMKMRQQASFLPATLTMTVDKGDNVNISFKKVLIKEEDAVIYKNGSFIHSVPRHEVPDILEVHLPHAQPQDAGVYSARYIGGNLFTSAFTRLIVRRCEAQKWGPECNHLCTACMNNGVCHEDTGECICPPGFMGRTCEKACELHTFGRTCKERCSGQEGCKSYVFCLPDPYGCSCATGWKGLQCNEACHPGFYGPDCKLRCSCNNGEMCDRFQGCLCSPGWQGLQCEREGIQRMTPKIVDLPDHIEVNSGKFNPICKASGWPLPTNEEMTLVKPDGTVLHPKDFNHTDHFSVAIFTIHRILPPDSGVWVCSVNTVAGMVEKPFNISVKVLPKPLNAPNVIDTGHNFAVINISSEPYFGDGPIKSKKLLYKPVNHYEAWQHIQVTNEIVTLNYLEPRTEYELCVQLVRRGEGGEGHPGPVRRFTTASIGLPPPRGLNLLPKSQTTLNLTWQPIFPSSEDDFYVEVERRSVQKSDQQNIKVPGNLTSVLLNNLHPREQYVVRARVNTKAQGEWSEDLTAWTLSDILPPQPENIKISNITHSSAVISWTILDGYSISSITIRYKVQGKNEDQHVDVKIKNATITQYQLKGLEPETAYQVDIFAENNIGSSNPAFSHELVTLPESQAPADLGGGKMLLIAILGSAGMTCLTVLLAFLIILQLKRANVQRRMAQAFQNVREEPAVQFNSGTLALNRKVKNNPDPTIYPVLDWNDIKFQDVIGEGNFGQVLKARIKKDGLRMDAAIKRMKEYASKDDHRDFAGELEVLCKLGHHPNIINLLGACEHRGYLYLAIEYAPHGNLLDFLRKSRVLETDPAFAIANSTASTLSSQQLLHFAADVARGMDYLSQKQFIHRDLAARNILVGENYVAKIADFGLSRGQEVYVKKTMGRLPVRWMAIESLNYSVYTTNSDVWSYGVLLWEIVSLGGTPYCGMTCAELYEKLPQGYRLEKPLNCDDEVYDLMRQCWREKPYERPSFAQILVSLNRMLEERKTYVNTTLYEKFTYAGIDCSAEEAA
T9 sequence (P16234 24-1089): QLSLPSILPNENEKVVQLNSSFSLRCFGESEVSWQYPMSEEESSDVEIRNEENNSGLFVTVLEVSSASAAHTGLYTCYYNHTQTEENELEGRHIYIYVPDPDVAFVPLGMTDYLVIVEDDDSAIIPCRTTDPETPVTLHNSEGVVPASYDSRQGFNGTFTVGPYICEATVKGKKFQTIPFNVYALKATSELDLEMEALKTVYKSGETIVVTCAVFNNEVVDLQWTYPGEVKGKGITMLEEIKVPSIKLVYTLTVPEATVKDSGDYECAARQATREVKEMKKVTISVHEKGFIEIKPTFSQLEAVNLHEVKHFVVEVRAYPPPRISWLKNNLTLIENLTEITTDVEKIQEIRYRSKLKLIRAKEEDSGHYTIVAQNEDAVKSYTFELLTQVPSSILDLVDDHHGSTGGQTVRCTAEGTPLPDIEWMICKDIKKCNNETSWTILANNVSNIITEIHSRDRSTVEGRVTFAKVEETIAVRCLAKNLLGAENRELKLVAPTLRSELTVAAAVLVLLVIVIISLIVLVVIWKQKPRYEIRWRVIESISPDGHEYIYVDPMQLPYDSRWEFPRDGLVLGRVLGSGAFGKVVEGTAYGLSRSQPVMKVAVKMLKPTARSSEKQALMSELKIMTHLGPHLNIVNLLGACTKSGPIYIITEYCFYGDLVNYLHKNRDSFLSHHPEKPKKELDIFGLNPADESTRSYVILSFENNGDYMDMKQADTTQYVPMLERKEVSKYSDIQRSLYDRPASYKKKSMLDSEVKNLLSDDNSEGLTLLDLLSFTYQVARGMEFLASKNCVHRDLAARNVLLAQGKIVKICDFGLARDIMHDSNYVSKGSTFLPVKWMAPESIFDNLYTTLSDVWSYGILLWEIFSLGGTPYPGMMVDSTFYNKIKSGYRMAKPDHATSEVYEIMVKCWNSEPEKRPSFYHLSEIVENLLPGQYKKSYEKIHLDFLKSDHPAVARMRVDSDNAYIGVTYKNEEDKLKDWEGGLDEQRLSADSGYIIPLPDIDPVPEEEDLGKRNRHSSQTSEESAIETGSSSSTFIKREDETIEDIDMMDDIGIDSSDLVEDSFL

inhibition at 10 µM (SAPK2α): 100% | inhibition at 10 µM (c-RAF): 100% | inhibition at 10 µM (wild-type Abl): 97% | inhibition at 10 µM (SAPK2β): 100% | inhibition at 10 µM (Tie2): 99% | inhibition at 10 µM (TrkB): 97% | inhibition at 10 µM (JNK2α2): 97% | inhibition at 10 µM (MKK6): 100% | inhibition at 10 µM (PDGFRα): 97% | inhibition at 10 µM (c-SRC): 99% | inhibition at 10 µM (lck): 100%
Compound: Cc1ccc(NC(=O)c2cccc(C(F)(F)F)c2)cc1Nc1nccn1-c1cc(NCCN2CCOCC2)ncn1 [Compound 3, N-(4-Methyl-3-{1-[6-(2-morpholin-4-yl-ethylamino)-pyrimidin-4-yl]-1H-imidazol-2-ylamino}-phenyl)-3-trifluoromethyl-benzamide]
